What follows are compounds tested against T1, human Nav1.7 channels (Homo sapiens, UniProt Q15858) (assay: FRET assay, human Nav1.7 (EFS on FDSS)). Settings: CHO cells expressing human Nav1.7, read-out: IC50 against Nav1.7.
T1 construct: expressed in transfected cells; host or cells: CHO
Type: cell-based
Procedure: The inhibitory activities of compounds against voltage gated sodium channels are determined by methodology well known in the art.
The ability of the aryl substituted carboxamide derivatives of the formula (I) to inhibit the NaV1.3, Nav1.7 and Nav1.5 channels is measured by Fluorescence Resonance Energy Transfer (FRET) assay and electrophysiology assay described below.
This screen is used to determine the effects of compounds on human Nav1.3, human Nav1.7, and human Nav1.5 channels, utilising electrical field stimulation (EFS) system in 96-well plate format on FDSS (Hamamatsu Photonics) platform. The change of membrane potential is monitored with FRET dye pair, oxonol (DiSBAC2(3)) and coumarin (CC2-DMPE).
CHO cells expressing human Nav1.7 channels are grown in T225 flasks, in a 5% CO2 humidified incubator to about 80% confluence. Media composition consists of HAM/F12 with Glutamax 1.10% FCS, 100 units/mL Penicillin and 100 microgram/mL Hygromycin.
Protocol: • Seed each cell lines (1×10^5 cells/well) into poly-D-lysine coated 96-well plates prior to experimentation. • Incubate at 37° C. in 5% CO2 for 24 hours. • Wash each well with assay buffer (140 mM NaCl, 4.5 mM KCl, 10 mM D-Glucose, 2 mM CaCl2, 1 mM MgCl2, 10 mM HEPES, pH 7.4 adjusted with NaOH) twice. • Add 1st loading solution containing 10 microM CC2-DMPE and 0.06% Pluronic F-127 in assay buffer. • Incubate the plate at room temperature in dark for 1 hour. • Remove 1st loading solution and added 2nd loading solution containing 15 microM DiSBAC2(3), 0.555 mM VABSC-1 and 0.004% Pluronic F-127 in assay buffer. • Place the plate under the dark at room temperature for 25 minutes. • Add compound solutions into the assay plate. • Set the assay plate in FDSS and placed an EFS device on the plate. • Measure EFS-induced fluorescent response by FDSS.
The data are analyzed and reported as normalized ratios of intensities measured at […]. The process of calculating these ratios is performed as follows:
This analysis is performed using a computerized specific program designed for FDSS generated data. Fluorescence ratio values are plotted using XLfit to determine an IC50 value for each compound.

T1 sequence (Q15858 whole entry): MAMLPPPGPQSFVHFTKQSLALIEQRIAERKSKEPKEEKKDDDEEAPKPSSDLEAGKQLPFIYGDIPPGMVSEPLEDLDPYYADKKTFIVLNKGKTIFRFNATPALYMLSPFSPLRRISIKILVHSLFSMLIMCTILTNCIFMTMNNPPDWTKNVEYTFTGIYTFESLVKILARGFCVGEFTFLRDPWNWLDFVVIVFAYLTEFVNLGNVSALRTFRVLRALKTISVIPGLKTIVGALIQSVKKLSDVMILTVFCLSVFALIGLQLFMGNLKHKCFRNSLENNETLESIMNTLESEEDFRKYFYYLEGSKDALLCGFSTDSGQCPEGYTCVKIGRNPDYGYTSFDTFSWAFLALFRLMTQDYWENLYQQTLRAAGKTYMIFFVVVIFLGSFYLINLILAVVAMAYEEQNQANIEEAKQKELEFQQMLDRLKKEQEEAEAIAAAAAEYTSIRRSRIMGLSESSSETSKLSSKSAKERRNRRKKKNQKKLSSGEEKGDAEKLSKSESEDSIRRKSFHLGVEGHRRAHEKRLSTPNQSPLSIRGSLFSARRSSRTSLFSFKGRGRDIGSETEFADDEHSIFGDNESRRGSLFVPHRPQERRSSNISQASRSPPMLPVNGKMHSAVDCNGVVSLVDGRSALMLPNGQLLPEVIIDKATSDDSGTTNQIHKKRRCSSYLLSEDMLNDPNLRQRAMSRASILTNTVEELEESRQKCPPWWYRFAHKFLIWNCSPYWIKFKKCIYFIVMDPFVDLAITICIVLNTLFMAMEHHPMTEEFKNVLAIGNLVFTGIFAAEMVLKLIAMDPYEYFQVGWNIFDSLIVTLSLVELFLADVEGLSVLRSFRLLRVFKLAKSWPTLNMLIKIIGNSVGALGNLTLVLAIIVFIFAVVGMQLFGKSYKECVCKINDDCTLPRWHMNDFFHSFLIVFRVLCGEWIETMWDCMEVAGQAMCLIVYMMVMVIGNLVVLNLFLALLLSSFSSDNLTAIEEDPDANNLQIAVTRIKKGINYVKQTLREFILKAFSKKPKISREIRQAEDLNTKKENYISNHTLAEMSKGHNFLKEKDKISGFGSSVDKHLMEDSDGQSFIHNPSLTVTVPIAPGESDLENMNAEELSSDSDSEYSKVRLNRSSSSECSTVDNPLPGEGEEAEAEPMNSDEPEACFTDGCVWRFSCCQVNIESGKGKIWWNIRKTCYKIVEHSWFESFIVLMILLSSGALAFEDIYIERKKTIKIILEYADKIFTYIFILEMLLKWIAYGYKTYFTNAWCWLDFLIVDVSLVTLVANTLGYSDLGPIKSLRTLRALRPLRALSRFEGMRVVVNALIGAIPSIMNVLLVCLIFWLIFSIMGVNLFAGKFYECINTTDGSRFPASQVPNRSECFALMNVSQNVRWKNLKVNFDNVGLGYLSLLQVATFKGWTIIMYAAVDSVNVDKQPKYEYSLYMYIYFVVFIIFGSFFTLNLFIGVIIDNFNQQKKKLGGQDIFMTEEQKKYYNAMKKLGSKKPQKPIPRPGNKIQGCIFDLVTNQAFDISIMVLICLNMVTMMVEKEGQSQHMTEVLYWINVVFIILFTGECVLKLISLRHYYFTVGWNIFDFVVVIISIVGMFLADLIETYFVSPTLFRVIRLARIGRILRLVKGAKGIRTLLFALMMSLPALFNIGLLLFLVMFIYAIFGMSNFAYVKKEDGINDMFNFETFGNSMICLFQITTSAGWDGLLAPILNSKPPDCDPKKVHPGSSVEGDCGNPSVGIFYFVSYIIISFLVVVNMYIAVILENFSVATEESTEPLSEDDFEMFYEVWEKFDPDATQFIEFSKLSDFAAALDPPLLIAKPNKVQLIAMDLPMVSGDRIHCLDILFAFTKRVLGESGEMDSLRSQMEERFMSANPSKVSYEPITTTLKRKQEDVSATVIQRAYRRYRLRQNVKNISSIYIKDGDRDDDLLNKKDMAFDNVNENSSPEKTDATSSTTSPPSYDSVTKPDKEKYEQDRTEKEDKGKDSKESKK

| SMILES | IC50 |
| --- | --- |
| CC(=O)Nc1cc(C(=O)N[C@H](C)c2cccc(C(F)(F)F)c2)ccn1 (single isomer, unassigned) [Example 7] | < 1 µM |
| CC(NC(=O)c1ccnc(NC(=O)C2CC2)c1)c1ccc(OCC(F)(F)F)nc1 (single isomer, unassigned) [Example 9, 2-(cyclopropanecarboxamido)-N-(1-(6-(2,2,2-trifluoroethoxy)pyridin-3-yl)ethyl)isonicotinamide] | < 1 µM |
| CCC(=O)Nc1cc(C(=O)NC(C)c2ccc(OCC(F)(F)F)nc2)ccn1 (single isomer, unassigned) [Example 11, 2-propionamido-N-(1-(6-(2,2,2-trifluoroethoxy)pyridin-3-yl)ethyl)isonicotinamide] | < 1 µM |
| CCCC(=O)Nc1cc(C(=O)NC(C)c2ccc(OCC(F)(F)F)nc2)ccn1 (single isomer, unassigned) [Example 40, 2-butyramido-N-(1-(6-(2,2,2-trifluoroethoxy)pyridin-3-yl)ethyl)isonicotinamide] | < 1 µM |
| CC(=O)Nc1cc(C(=O)NC(C)c2cnc(OCC(F)(F)F)c(Cl)c2)ccn1 (single isomer, unassigned) [Example 52, 2-acetamido-N-(1-(5-chloro-6-(2,2,2-trifluoroethoxy)pyridin-3-yl)ethyl)isonicotinamide] | < 1 µM |
| CCC(=O)Nc1cc(C(=O)NC(C)c2ccc(OCC(F)(F)F)nc2)cc(C)n1 (single isomer, unassigned) [Example 60, 2-methyl-6-propionamido-N-(1-(6-(2,2,2-trifluoroethoxy)pyridin-3-yl)ethyl)isonicotinamide] | < 1 µM |
| Cc1cc(C(=O)NC(C)c2ccc(OCC(F)(F)F)nc2)cc(NC(=O)C2CC2)n1 (single isomer, unassigned) [Example 61, 2-(cyclopropanecarboxamido)-6-methyl-N-(1-(6-(2,2,2-trifluoroethoxy)pyridin-3-yl)ethyl)isonicotinamide] | < 1 µM |
| CC(=O)Nc1cc(C(=O)NC(C)c2cc(C)nc(OCC(F)(F)F)c2)ccn1 (single isomer, unassigned) [Example 73, 2-acetamido-N-(1-(2-methyl-6-(2,2,2-trifluoroethoxy)pyridin-4-yl)ethyl)isonicotinamide] | < 1 µM |
| CCC(=O)Nc1cc(C(=O)NC(C)c2cnc(OCC(F)(F)F)c(F)c2)ccn1 (single isomer, unassigned) [Example 74, N-(1-(5-fluoro-6-(2,2,2-trifluoroethoxy)pyridin-3-yl)ethyl)-2-propionamidoisonicotinamide] | < 1 µM |
| CC(NC(=O)c1ccnc(NC(=O)C2CC2)c1)c1cnc(OCC(F)(F)F)c(Cl)c1 (single isomer, unassigned) [Example 79, N-(1-(5-chloro-6-(2,2,2-trifluoroethoxy)pyridin-3-yl)ethyl)-2-(cyclopropanecarboxamido)isonicotinamide] | < 1 µM |
| CC(=O)Nc1cc(C(=O)NC(C)c2cccc(OCC(F)(F)F)c2)ccn1 (single isomer, unassigned) [Example 84, 2-acetamido-N-(1-(3-(2,2,2-trifluoroethoxy)phenyl)ethyl)isonicotinamide] | < 1 µM |
| CCC(=O)Nc1cc(C(=O)NC(C)c2ccc(OCCC(F)(F)F)nc2)ccn1 (single isomer, unassigned) [Example 115, 2-propionamido-N-(1-(6-(3,3,3-trifluoropropoxy)pyridin-3-yl)ethyl)isonicotinamide] | < 1 µM |
| CC(NC(=O)c1ccnc(NC(=O)C2CC2)c1)c1ccc(OCCC(F)(F)F)nc1 (single isomer, unassigned) [Example 116, 2-(cyclopropanecarboxamido)-N-(1-(6-(3,3,3-trifluoropropoxy)pyridin-3-yl)ethyl)isonicotinamide] | < 1 µM |
| CCC(=O)Nc1cc(C(=O)NC(C)c2cnc(OCC(F)(F)F)c(F)c2)cc(C)n1 (single isomer, unassigned) [Example 131, N-(1-(5-fluoro-6-(2,2,2-trifluoroethoxy)pyridin-3-yl)ethyl)-2-methyl-6-propionamidoisonicotinamide] | < 1 µM |
| CCC(=O)Nc1cc(C(=O)NC(CC)c2ccc(OCC(F)(F)F)nc2)cc(C)n1 (single isomer, unassigned) [Example 133, 2-methyl-6-propionamido-N-(1-(6-(2,2,2-trifluoroethoxy)pyridin-3-yl)propyl)isonicotinamide] | < 1 µM |
| CCC(=O)Nc1cc(C(=O)NC(C)c2ccc(OC(F)(F)F)cc2)cc(C)n1 (single isomer, unassigned) [Example 135, 2-methyl-6-propionamido-N-(1-(4-(trifluoromethoxy)phenyl)ethyl)isonicotinamide] | < 1 µM |
| CCC(=O)Nc1cc(C(=O)NC(C)c2ccc(OCCC(F)(F)F)nc2)cc(C)n1 (single isomer, unassigned) [Example 140, 2-methyl-6-propionamido-N-(1-(6-(3,3,3-trifluoropropoxy)pyridin-3-yl)ethyl)isonicotinamide] | < 1 µM |
| CCC(=O)Nc1cc(C(=O)NC(C)c2cnc(OCC(F)(F)F)c(OC)c2)ccn1 (single isomer, unassigned) [Example 142] | < 1 µM |
| COc1cc(C(C)NC(=O)c2ccnc(NC(=O)C3CC3)c2)cnc1OCC(F)(F)F (single isomer, unassigned) [Example 143, 2-(cyclopropanecarboxamido)-N-(1-(5-methoxy-6-(2,2,2-trifluoroethoxy)pyridin-3-yl)ethyl)isonicotinamide] | < 1 µM |
| CCC(=O)Nc1cc(C(=O)NC(C)c2cnc(OCC(F)(F)F)c(OC)c2)cc(C)n1 (single isomer, unassigned) [Example 144, N-(1-(5-methoxy-6-(2,2,2-trifluoroethoxy)pyridin-3-yl)ethyl)-2-methyl-6-propionamidoisonicotinamide] | < 1 µM |
| CC(C)C(=O)Nc1cc(C(=O)NC(C)c2ccc(OCCC(F)(F)F)nc2)ccn1 (single isomer, unassigned) [Example 186, 2-isobutyramido-N-(1-(6-(3,3,3-trifluoropropoxy)pyridin-3-yl)ethyl)isonicotinamide] | < 1 µM |
| COc1cc(C(C)NC(=O)c2cc(C)nc(NC(=O)C3CC3)n2)cnc1OCC(F)(F)F (single isomer, unassigned) [Example 194, 2-(cyclopropanecarboxamido)-N-(1-(5-methoxy-6-(2,2,2-trifluoroethoxy)pyridin-3-yl)ethyl)-6-methylpyrimidine-4-carboxamide] | < 1 µM |
| CCC(=O)Nc1nccc(C(=O)NC(C)c2cnc(OCC(F)(F)F)c(Cl)c2)n1 (single isomer, unassigned) [Example 210, N-(1-(5-chloro-6-(2,2,2-trifluoroethoxy)pyridin-3-yl)ethyl)-2-propionamidopyrimidine-4-carboxamide] | < 1 µM |
| CC(NC(=O)c1ccnc(NC(=O)C2CC2)n1)c1cnc(OCC(F)(F)F)c(Cl)c1 (single isomer, unassigned) [Example 211, N-(1-(5-chloro-6-(2,2,2-trifluoroethoxy)pyridin-3-yl)ethyl)-2-(cyclopropanecarboxamido)pyrimidine-4-carboxamide] | < 1 µM |
| CC(C)C(=O)Nc1nccc(C(=O)NC(C)c2cnc(OCC(F)(F)F)c(Cl)c2)n1 (single isomer, unassigned) [Example 212, N-(1-(5-chloro-6-(2,2,2-trifluoroethoxy)pyridin-3-yl)ethyl)-2-isobutyramidopyrimidine-4-carboxamide] | < 1 µM |
| CC(NC(=O)c1ccnc(NC(=O)C2CCC2)n1)c1cnc(OCC(F)(F)F)c(Cl)c1 (single isomer, unassigned) [Example 213, N-(1-(5-chloro-6-(2,2,2-trifluoroethoxy)pyridin-3-yl)ethyl)-2-(cyclobutanecarboxamido)pyrimidine-4-carboxamide] | < 1 µM |
| CCC(=O)Nc1nc(C)cc(C(=O)NC(C)c2cnc(OCC(F)(F)F)c(Cl)c2)n1 (single isomer, unassigned) [Example 214, N-(1-(5-chloro-6-(2,2,2-trifluoroethoxy)pyridin-3-yl)ethyl)-6-methyl-2-propionamidopyrimidine-4-carboxamide] | < 1 µM |
| Cc1cc(C(=O)NC(C)c2cnc(OCC(F)(F)F)c(Cl)c2)nc(NC(=O)C(C)C)n1 (single isomer, unassigned) [Example 216, N-(1-(5-chloro-6-(2,2,2-trifluoroethoxy)pyridin-3-yl)ethyl)-2-isobutyramido-6-methylpyrimidine-4-carboxamide] | < 1 µM |
| CC(C)C(=O)Nc1cc(C(=O)NC(C)c2cnc(OCC(F)(F)F)c(F)c2)ccn1 (single isomer, unassigned) [Example 220, N-(1-(5-fluoro-6-(2,2,2-trifluoroethoxy)pyridin-3-yl)ethyl)-2-isobutyramidoisonicotinamide] | < 1 µM |
